# Reference: US20070259865A1, “Agent for Promoting the Recovery from Dysfunction After the Onset of Central Neurological Disease” (Astellas Pharma Inc., priority 2004, published 2007)
# Columns and labels:
# [1] = system: spontaneous hypertension rats; assay: Effect on the circulatory system (heart rate); format: in vivo, rat
# Method: After a cannula was inserted into the common carotid artery, heart rates were monitored. […] For the control group, physiological saline was administered intraperitoneally and the measurement was similarly conducted. Statistical analysis was conducted by one-way repeated-measures analysis of variance.
# [2] = system: cerebral infarction rat model; assay: Beam-walking test, walking function in cerebral infarction rat model; format: in vivo; settings: vs. control group; male spontaneous hypertension rats after MCA occlusion; Compound A 5 and 10 mg/kg; D-amphetamine 0.75 and 1.5 mg/kg intraperitoneally; FIGS. 1-3 (a)
# Source text: (§1) Blood Flow Metab. 8, 474-485, 1988.
# [3] = system: cerebral infarction rat model; assay: Staircase test, forepaw function in cerebral infarction rat model; settings: vs. control group, Compound A 5 mg/kg orally five times per week, D-amphetamine 1.5 mg/kg intraperitoneally twice per week, to week 6; for forepaw dysfunction, number of displaced pellets in the staircase test: FIG. 4 (a); for forepaw dysfunction, number of eaten pellets in the staircase test: FIG. 4 (b)
# [4] = system: cerebral infarction rat model; assay: Foot-fault test, walking function in cerebral infarction rat model; format: in vivo; settings: vs. control group; forepaw on the disordered side; Compound A 5 and 10 mg/kg; D-amphetamine 0.75 and 1.5 mg/kg intraperitoneally; FIGS. 1-3 (b)
# Source text: as §1
# [5] = system: cerebral infarction rat model; settings: D-amphetamine 0.75 and 1.5 mg/kg, FIG. 5
Compound,"effect on heart rate ([1]; rat, in vivo)",improvement effect on gait function in the beam-walking test (score) [2],"forepaw dysfunction, number of displaced pellets in the staircase test [3]","forepaw dysfunction, number of eaten pellets in the staircase test [3]",improvement effect on gait function in the foot-fault test (% foot-faults) [4],"effect on heart rate ([1]; recorded until 4 hours after administration, Compound A orally, D-amphetamine intraperitoneally, vs. basal value, FIG. 6)","effect on the number of steps (locomotor activity, excitatory effect) [5]"
"Cl.Fc1ccc(OC[C@@H]2CNCCO2)c2c1CCC2 [Compound A, (S)-2-[[(7-Fluoro-4-indanyl)oxy]methyl]morpholine hydrochloride]",no effect on heart rate,significant improvement effect,significant improvement effect,significant improvement effect,significant improvement effect,–,–
C[C@H](N)Cc1ccccc1 [D-amphetamine],–,–,the effect was not significant,the effect was not significant,–,significant accentuation of heart rate,remarkable increase in the number of steps
"CNCCC(Oc1ccc(C(F)(F)F)cc1)c1ccccc1 (centres unmarked) [fluoxetine, Fluoxetine]",–,no evident improvement effect,–,–,no evident improvement effect,–,–
